Results on 46 compounds are retold here after patent US11179412B2, “Methods of treating conditions involving elevated inflammatory response” (University of Pittsburgh—Of the Commonwealth System of …, priority 2017, dated 2021).

Where a name gives a salt, the structure may show the parent alone. Read-outs that look alike come from different tables or passages of the source.

For the experiment, the system named is STING activation (IFNβ release) in iBMDMs. Description: IFNβ release ELISA after STING ligand (or LPS) stimulation, iBMDMs. The experiment is classed as cell-based, mouse. Put shortly:
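iBMDMs were stimulated with a STING ligand such as 3′3′-cGAMP, or with LPS. Secreted IFNβ in culture medium was measured by commercial mouse or human IFNβ ELISA.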

The mark [1] stands for this setting: iBMDMs, 3′3′-cGAMP 10 μg/ml, 16 hours, compound 10 μM.

As for `CCN(CC)CCNC(=O)c1cc(Cl)c(N)cc1OC` [MetoclopraMide HCl], the “fold increase in IFN-β release” value under setting [1] came out at 2.14 fold.
In the case of `Nc1nc(CC(=O)Nc2ccc(CCNC[C@H](O)c3ccccc3)cc2)cs1` [Mirabegron], the “fold increase in IFN-β release” value under setting [1] is reported as 0.69 fold.
Still for that read-out and setting: as for `O=C(NCCN1CCOCC1)c1ccc(Cl)cc1` [Moclobemide (Ro 111163), Moclobemide], the figure is 1.88 fold.
Consider `FC(F)(F)c1ccc(/C=C/c2nc(COc3ccc(CCCCn4ccnn4)cc3)co2)cc1` [Mubritinib (TAK 165), Mubritinib], for which the “fold increase in IFN-β release” value under setting [1] is 0.56 fold.
Still for that read-out and setting: as for `Cc1cc(C(N)=O)ccc1-n1c(CCC(=O)O)ccc1-c1ccc(-n2ccnc2)cc1` [N6022], the figure is 0.75 fold.
Regarding `CCCCCCCCCCCCCCCCn1cc[n+](Cc2ccccc2)c1C.[I-]` [NH125], the “fold increase in IFN-β release” value under setting [1] is 0.11 fold.
With `Cc1cc(OCc2nnc(SC3CCCC3)n2-c2cccnc2)ccc1-c1ccc(S(C)(=O)=O)cc1` [NMS-873], the “fold increase in IFN-β release” value under setting [1] worked out at 1.90 fold.
Take `CN1CCN(c2ccc(OC(F)(F)F)c(Nc3ncc4c(n3)-c3c(c(C(N)=O)nn3CCO)CC4)c2)CC1` [NMS-P937 (NMS1286937)]: under setting [1], the “fold increase in IFN-β release” value is recorded as 0.73 fold.
Same read-out and setting: next, `CC(C)(Cc1ccc2ccccc2c1)NC[C@@H](O)COc1cccc(Cl)c1C#N` [NPS-2143]: 0.99 fold; `Cc1ccc(S(=O)(=O)c2ccc([N+](=O)[O-])o2)cc1` [NSC697923]: 0.51 fold.
Same read-out and setting: as for `CCN(CC)CCCC(C)Nc1nc(C)cc(Nc2ccc3nc(C)cc(N)c3c2)n1` (stereo not shown) [NSC 23766], the figure is 1.30 fold; as for `C/C(=N\NC(=S)N1CCC1)c1ccccn1` [NSC 319726], 2.43 fold; as for `CCCC(C)NC(=O)c1ccc(Cl)c(Cl)c1` (stereo not shown) [NSC 405020], 1.24 fold.
On the same count and under the same terms, as for `Nc1ncnc2c1c(-c1cccc(OCc3ccccc3)c1)cn2C1CC(CN2CCCC2)C1` (stereo not shown) [NVP-ADW742], the figure is 0.61 fold; as for `COc1ccccc1N1CCN(CC(O)COc2cccc3ccccc23)CC1` (stereo not shown) [Naftopidil], 2.46 fold.
For `O=C1CC[C@@]2(O)[C@H]3Cc4ccc(O)c5c4[C@@]2(CCN3CC2CC2)[C@H]1O5` [Naltrexone HCl], the “fold increase in IFN-β release” value under setting [1] stood at 3.12 fold.
The same measure, in the same setting: next, `COc1ccc2cc([C@H](C)C(=O)O)ccc2c1` [Naproxen]: 1.46 fold; `OC(CNCC(O)C1CCc2cc(F)ccc2O1)C1CCc2cc(F)ccc2O1` (stereo not shown) [Nebivolol]: 0.75 fold; `CN1C(=O)C(Cc2c[nH]c3ccccc23)NC1=S` (stereo not shown) [Necrostatin-1]: 1.60 fold.
Still for that read-out and setting: next, `Cc1cn(-c2cc(NC(=O)c3ccc(C)c(Nc4nccc(-c5cccnc5)n4)c3)cc(C(F)(F)F)c2)cn1` [Nilotinib (AMN-107), Nilotinib]: 0.77 fold; `COC(=O)C1=C(C#N)NC(C)=C(C(=O)OC(C)C)C1c1cccc([N+](=O)[O-])c1` (stereo not shown) [Nilvadipine]: 1.79 fold.
With `C[C@]1(O)C[C@@H](c2nc(-c3ccc4ccc(-c5ccccc5)nc4c3)c3c(N)nccn32)C1` [OSI-906 (Linsitinib), Linsitinib], the “fold increase in IFN-β release” value under setting [1] was found to be 0.66 fold.
Turning to `NCC(=O)Nc1ccc(-n2nc(C(F)(F)F)cc2-c2ccc3c(ccc4ccccc43)c2)cc1` [OSU-03012 (AR-12)], the “fold increase in IFN-β release” value under setting [1] is 0.31 fold.
On the same count and under the same terms, as for `Cc1sc2c(c1C)C(c1ccc(Cl)cc1)=N[C@@H](CC(=O)Nc1ccc(O)cc1)c1nnc(C)n1-2` [OTX015], the figure is 0.43 fold; as for `CC(C)(F)C[C@H](N[C@@H](c1ccc(-c2ccc(S(C)(=O)=O)cc2)cc1)C(F)(F)F)C(=O)NC1(C#N)CC1` [Odanacatib (MK-0822), Odanacatib], 0.90 fold; as for `CC[C@@H]1/C=C/C=C/C[C@H](C)[C@H](O)[C@](C)(O)C(=O)[C@H](C)[C@@H](O)[C@H](C)C(=O)[C@H](C)[C@@H](O)[C@H](C)/C=C/C(=O)O[C@H]2[C@@H](C)[C@@H](CC1)O[C@@]1(CC[C@@H](C)[C@@H](C[C@H](C)O)O1)[C@@H]2C` [Oligomycin A], 2.49 fold.
For the compound `CCc1c(C(=O)NCCc2ccc(N3CCCCC3)cc2)[nH]c2ccc(Cl)cc12` [Org 27569], under setting [1], the “fold increase in IFN-β release” value was 1.74 fold.
Take `OCCOc1ccc(/C(=C(/CCCl)c2ccccc2)c2ccccc2)cc1` [Ospemifene]: the “fold increase in IFN-β release” value amounted to 0.10 fold.
Take `C[C@@H]1O[C@@H](O[C@H]2C[C@@H](O)[C@]3(CO)[C@H]4[C@H](O)C[C@]5(C)[C@@H](C6=CC(=O)OC6)CC[C@]5(O)[C@@H]4CC[C@]3(O)C2)[C@H](O)[C@H](O)[C@H]1O` [Ouabain]: under setting [1], the “fold increase in IFN-β release” value was found to be 1.08 fold.
Still for that read-out and setting: as for `NC(=O)N1c2ccccc2CC(=O)c2ccccc21` [Oxcarbazepine], the figure is 5.22 fold; as for `Cc1cc(C(C)(C)C)c(O)c(C)c1CC1=NCCN1` [Oxymetazoline HCl], 1.16 fold.
Take `O=C(O)/C=C/c1ccc(Cn2ccnc2)cc1` [Ozagrel HCl]: for the setting “iBMDMs, 3′3′-cGAMP 10 μg/ml, 16 hours, compound 10 μM, HCl”, the “fold increase in IFN-β release” value worked out at 2.13 fold.
For `O=C(O)/C=C/c1ccc(Cn2ccnc2)cc1` [Ozagrel], the “fold increase in IFN-β release” value under setting [1] was 0.11 fold.
Consider `CC(=O)c1cc([N+](=O)[O-])c(Sc2ccc(F)cc2F)s1` [P22077], for which, under setting [1], the “fold increase in IFN-β release” value was found to be 0.35 fold.
Still for that read-out and setting: next, `C=CCc1cccc(/C=N/NC(=O)CN2CCN(Cc3ccccc3)CC2)c1O` [PAC-1]: 0.17 fold.
The same measure, in the same setting: as for `O=C(NOCC1CC1)c1ccc(F)c(F)c1Nc1ccc(I)cc1Cl` [PD184352 (CI-1040)], the figure is 0.94 fold; as for `O=C(NOC[C@H](O)CO)c1ccc(F)c(F)c1Nc1ccc(I)cc1F` [PD0325901], 0.39 fold; as for `O=C(O)/C(S)=C/c1c[nH]c2ccc(F)cc12` [PD 151746], 1.92 fold.
On the same count and under the same terms, next, `O=C(Nc1cccnc1)N1CCC(Cc2cccc(Oc3ccc(C(F)(F)F)cn3)c2)CC1` [PF-3845]: 2.14 fold.
Turning to `CN(c1ncccc1CNc1nc(Nc2ccc3c(c2)CC(=O)N3)ncc1C(F)(F)F)S(C)(=O)=O` [PF-562271], the “fold increase in IFN-β release” value under setting [1] is 0.21 fold.
Same read-out and setting: as for `CS(=O)(=O)c1cccc(CNc2nc(Nc3ccc4c(c3)CCC(=O)N4)ncc2C(F)(F)F)c1` [PF-573228], the figure is 0.87 fold.
For `OCCn1cc(-c2cnc3nnn(Cc4ccc5ncccc5c4)c3n2)cn1` [PF-04217903], the “fold increase in IFN-β release” value under setting [1] came to 1.49 fold.
On to `CCc1cncnc1N1CCN(Cc2nc3ccc(C(F)(F)F)cc3[nH]2)CC1` [PF-4708671], for which, under setting [1], the “fold increase in IFN-β release” value amounted to 2.12 fold.
Same read-out and setting: as for `Cc1cnc(-c2cc(N3CCN(C(=O)CCS(C)(=O)=O)CC3)ncc2Cl)c(C)c1` [PF-5274857], the figure is 0.16 fold; as for `COc1ccccc1S(=O)(=O)Nc1ccc2c(c1)CN(C)C(=O)N2` [PFI-1 (PF-6405761)], 0.52 fold; as for `O=C(/C=C/c1ccc2ccccc2n1)c1ccncc1` [PFK15], 0.68 fold.
